In patent US20140343017A1, “PYRROLE COMPOUND” (Kabushiki Kaisha Yakult Honsha, priority 2012, published 2014):

What was measured:
[1] = system: Human non-small cell lung cancer NCI-H460 cells; assay: Inhibitory effect on growth of PTX-resistant tumor cell line, parent line (in vitro); type: cell-based; conditions: 96 hours culture, WST-8
Method: Each compound of the present invention was studied for its effect on the growth of a tumor cell line having a PTX resistance mechanism different from that attributed to the high expression of P-glycoprotein. Human non-small cell lung cancer NCI-H460 cells were exposed to 1 nM paclitaxel (PTX) and 10 μM verapamil at the same time. Only the PTX concentration was increased to 2, 3, 4, 5, and 7 nM in order over approximately 6 months to establish PTX-resistant H460/PV2-7 cells (PV2-7). […] As for the PTX resistance mechanism different from that attributed to the high expression of P-glycoprotein, an isotype called Class III β-tubulin (TUBB3), which is one isotype of […], has been reported to be highly expressed in PTX-resistant established lines in vitro or in clinical samples from patients having resistance to PTX therapy.
The PV2-7 cells and the parent line NCI-H460 cells were suspended in a medium and inoculated at a cell density of 1000 cells/50 μL/well to a 96-well plate. After overnight culture, each compound diluted 2-fold (final concentration) was added thereto at a concentration of 50 μL/well, and the cells were cultured for 96 hours. After the completion of culture, WST-8 (Seikagaku Corp.) was added thereto at a concentration of 10 μL/well, and the cells were cultured at 37° C. for approximately 1 hour under 5% CO2 conditions, followed by measurement of absorbance at 450 nm.

[2] = system: human non-small cell lung cancer A549 cells; assay: Inhibitory effect on growth of human cancer cells (in vitro), WST-8; type: cell-based; conditions: Homo sapiens, A549, 96 h, 96 hours culture
Summary of the method: (§1)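 Cells seeded at 1000 cells/well in RPMI1640 with 10% FBS, compounds added after overnight culture, then 96 h exposure. Viability by WST-8, about 1 h at 37 °C, 5% CO2, absorbance read at 450 nm.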

[3] = system: human colorectal cancer HCT116 cells; assay: as above; type: cell-based; conditions: Homo sapiens, HCT-116, 96 h, 96 hours culture
Summary of the method: as §1

[4] = system: human colorectal cancer HT-29 cells; assay: as above; type: cell-based; conditions: Homo sapiens, HT-29, 96 h, 96 hours culture, read-out: IC50 (nM) HT29
Summary of the method: as §1

[5] = system: Human uterus cancer MES-SA cells; assay: Inhibitory effect on growth of multidrug-resistant cell line, parent line (in vitro); type: cell-based; conditions: 48 hours culture, WST-8
Source text: (§2) Each compound of the present invention was studied for its effect on the growth of a multidrug-resistant cell line. A drug efflux pump called P-glycoprotein is well known to be involved in the drug resistance mechanism of the multidrug-resistant line MES-SA/Dx5 used in this experiment. Accordingly, in this experiment, paclitaxel and vincristine, which are proven substrates of P-glycoprotein, were used as control drugs. Human uterus cancer MES-SA cells and their multidrug-resistant line MES-SA/Dx5 cells were suspended in a medium and inoculated at a cell density of 2000 cells/50 μL/well to a 96-well plate. After overnight culture, each test sample diluted with a medium was added thereto at a concentration of 50 μL/well, and the cells were further cultured for 48 hours. After the completion of culture, WST-8 was added thereto at a concentration of 10 μL/well, and the cells were cultured at 37° C. for approximately 1 hour under 5% CO2 conditions, followed by measurement of absorbance at a wavelength of 450 nm. […] The resistance rate was calculated according to the following expression:
(§3) Resistance rate=IC50 value (MES-SA/Dx5)/IC50 value (MES-SA)

[6] = system: human lung cancer NCI-H460 xenograft tumor; assay: Antitumor effect on growth of human lung cancer NCI-H460 xenograft tumor (in vivo); design: species or system BALB/c nude mice; conditions: Mus musculus, NCI-H460, iv, 528 h, tail vein, excised tumor weight Day 22, read-out: Inhibition Rate (%)
Method: Each compound of the present invention was studied for its in vivo antitumor effect using human lung cancer NCI-H460 cell-transplanted mice. An NCI-H460 cell suspension containing 2×10^6 cells was subcutaneously transplanted in an amount of 0.1 mL/mouse to the left groin areas of 6-week-old male BALB/c nude mice. The mice were further raised for approximately 1 week to 10 days and divided into groups (4 mice per group) having equal estimated tumor volumes at the point in time when the tumor size reached approximately 100 to 200 mm^3 (Day 1). Each administration sample was administered at a dose of 10 mL/kg into the tail vein of the mice. The dose and administration schedule of each compound were as described in Table 3. At Day 22, tumor was excised from each mouse. The tumor growth inhibition rate (IR: Inhibition Rate) was calculated from the weight of the excised tumor according to the expression shown below. The Dunnett's test was used in the significant difference test.
Tumor growth inhibition rate (Inhibition Rate, %)=(1−(Excised tumor weight of the administration group)/(Excised tumor weight of the control group))×100

[7] = system: multidrug-resistant line MES-SA/Dx5 cells; assay: Inhibitory effect on growth of multidrug-resistant cell line (in vitro); type: cell-based, human; conditions: for IC50: Homo sapiens, MES-SA/Dx5 cells, 48 hours culture, WST-8; for Resistance rate: IC50 value (MES-SA/Dx5)/IC50 value (MES-SA)
Source text: as §2, §3

PV2-7 xenograft tumor = assay: Antitumor effect on growth of PV2-7 xenograft tumor (in vivo); design: species or system BALB/c nude mice; conditions: tail vein, once a week, three times in total (Days 1, 8, and 15); FIG. 5
Method: The mice were further raised for approximately 1 week to 10 days and divided into groups (4 or 5 mice per group) having equal estimated tumor volumes at the point in time when the tumor size reached approximately 100 to 200 mm^3 (Day 1). Each administration sample was administered at a dose of 10 mL/kg into the tail vein of the mice. In an administration schedule, each sample was administered once a week, three times in total (Days 1, 8, and 15).

CO[C@H]1C(=O)[C@]2(C)[C@@H](OC)C[C@H]3OC[C@@]3(OC(C)=O)[C@H]2[C@H](OC(=O)c2ccccc2)[C@]2(O)C[C@H](OC(=O)[C@H](O)[C@@H](NC(=O)OC(C)(C)C)c3ccccc3)C(C)=C1C2(C)C [Cabazitaxel, cabazitaxel]
IC50 [1]: 1.3 nM

COc1ccc(C(=O)c2c(C)[nH]c(-c3nnn(CCO)n3)c2C)cc1Br [Compound 110, (3-bromo-4-methoxyphenyl)(5-(2-(2-hydroxyethyl)-2H-tetrazol-5-yl)-2,4-dimethyl-1H-pyrrol-3-yl)methanone]
IC50 [2]: 39.3 nM | IC50 [3]: 14.2 nM | IC50 [4]: 8.2 nM | IC50 [5]: 5.5 nM | inhibition in vivo at 12.5 mg/kg ([6]; 12.5 mg/kg, Days 1, 3, 5, 8, 10, 12, 15, 17, 19): 55.8% | inhibition in vivo at 18.75 mg/kg ([6]; 18.75 mg/kg, Days 1, 3, 5, 8, 10, 12, 15, 17, 19): 77.4% | IC50 [7]: 22.7 nM | Resistance rate [7]: 4.2

Cc1c(-c2nnn(CCO)n2)[nH]c(CO)c1C(=O)c1cccc(Br)c1 [Compound 121, (3-bromophenyl)(5-(2-(2-hydroxyethyl)-2H-tetrazol-5-yl)-2-(hydroxymethyl)-4-methyl-1H-pyrrol-3-yl)methanone]
IC50 [2]: 122 nM | IC50 [3]: 43.5 nM | IC50 [4]: 43.8 nM | IC50 [5]: 49.8 nM | inhibition in vivo at 60 mg/kg ([6]; 60 mg/kg, Days 1, 3, 5, 8, 10, 12, 15, 17, 19): 60.6% | inhibition in vivo at 120 mg/kg ([6]; 120 mg/kg, Days 1, 8, 15): 75.5% | IC50 [7]: 88.4 nM | Resistance rate [7]: 1.8 | IC50 [1]: 76.2 nM

Cc1c(-c2nnn(CCO)n2)[nH]c(C(C)O)c1C(=O)c1cccc(Br)c1 (stereo not drawn) [Compound 123, (3-bromophenyl)(2-(1-hydroxyethyl)-5-(2-(2-hydroxyethyl)-2H-tetrazol-5-yl)-4-methyl-1H-pyrrol-3-yl)methanone]
IC50 [2]: 326 nM | IC50 [3]: 46.1 nM | IC50 [4]: 39.5 nM | IC50 [5]: 63.3 nM | inhibition in vivo at 50 mg/kg ([6]; 50 mg/kg, Days 1, 3, 5, 8, 10, 12, 15, 17, 19): 58.2% | inhibition in vivo at 100 mg/kg ([6]; 100 mg/kg, Days 1, 5, 9): 56.5% | IC50 [7]: 135 nM | Resistance rate [7]: 2.1 | IC50 [1]: 68.8 nM

CNC(=O)c1[nH]c(-c2nnn(CCO)n2)c(C)c1C(=O)c1cccc(Br)c1 [Compound 142, 3-(3-bromobenzoyl)-5-(2-(2-hydroxyethyl)-2H-tetrazol-5-yl)-N,4-dimethyl-1H-pyrrole-2-carboxamide]
IC50 [2]: 257 nM | IC50 [3]: 194 nM | IC50 [4]: 176 nM | IC50 [5]: 238 nM | inhibition in vivo at 140 mg/kg ([6]; 140 mg/kg, Days 1, 8, 15): 73.8% | IC50 [7]: 656 nM | Resistance rate [7]: 2.8 | IC50 [1]: 374 nM

COc1ccc(C(=O)c2c(C)[nH]c(-c3nnc(C4CC4)o3)c2C)cc1Br [Compound 198, (3-bromo-4-methoxyphenyl) (5-(5-cyclopropyl-1,3,4-oxadiazol-2-yl)-2,4-dimethyl-1H-pyrrol-3-yl)methanone]
IC50 [2]: 1.8 nM | IC50 [3]: 0.9 nM | IC50 [4]: 0.3 nM | IC50 [5]: 0.21 nM | inhibition in vivo at 10 mg/kg ([6]; 10 mg/kg, Days 1, 3, 8, 10, 12, 15, 17, 19): 51.6% | IC50 [7]: 0.28 nM | Resistance rate [7]: 1.3

CC(=O)O[C@@]12CO[C@@H]1C[C@H](O)[C@@]1(C)C(=O)[C@H](O)C3=C(C)[C@@H](OC(=O)[C@H](O)[C@@H](NC(=O)OC(C)(C)C)c4ccccc4)C[C@@](O)([C@@H](OC(=O)c4ccccc4)[C@H]21)C3(C)C [Docetaxel, docetaxel]
IC50 [1]: 1.5 nM

CC(=O)O[C@H]1C(=O)[C@@]2(C)[C@H]([C@H](OC(=O)c3ccccc3)[C@]3(O)C[C@H](OC(=O)[C@H](O)[C@@H](NC(=O)c4ccccc4)c4ccccc4)C(C)=C1C3(C)C)[C@]1(OC(C)=O)CO[C@@H]1C[C@@H]2O [Paclitaxel, paclitaxel, reference compound]
IC50 [5]: 15.2 nM | IC50 [7]: 3700 nM | Resistance rate [7]: 243.3 | IC50 [1]: 3.5 nM | antitumor effect on PV2-7 cell-transplanted mice (PV2-7 xenograft tumor): hardly effective
